Assay results published in patent publication US20230263749A1, “COMPOSITIONS AND METHODS FOR IMPROVING NEUROLOGICAL DISEASES AND DISORDERS” (CuraSen Therapeutics, Inc., priority 2020, published 2023).
“Also recorded” adds a separate entry of the source.

What was measured:
Format in all cases: in vivo, human
healthy subjects [1] = test: Heart rate by triplicate ECG after Compound 03-5 with or without nadolol pre-administration
Protocol: Heart rate was measured by triplicate ECG recordings. Data are presented as means changes from time-matched measures recorded on the day before the first dose of study drug (Day −1).
Healthy volunteers were be enrolled into 2 cohorts in a study to undertake within-subject dose titration of Compound 03-5 and/or nadolol in order to explore doses/dose combinations that mitigate peripheral effects of Compound 03-5, e.g. on heart rate, while preserving possible central effects of Compound 03-5 on cerebral perfusion and pupillary light reflex.
Cohort D1 enrolled 8 healthy subjects and undertook an evaluation of the effects of treatment on ECG following repeat dosing of Compound 03-5 in the presence of escalating doses of nadolol according to following schematic.
Eight healthy subjects aged 18-50 years were enrolled into Cohort D1 and received escalating doses of Compound 03-5 (3-12 mg) administered once daily 2 hours follow pre-administration of nadolol (1-40 mg). On all dosing days, study drug(s) were administered orally after an overnight fast of at least 8 hours.
(§1) Routine measures of ECG, vital signs, safety labs, physical exams and plasma sample collections for analysis of drug pharmacokinetics (PK) were undertaken according to the Schedule of Events (Table 1).
(§2) In Cohort D2, 8 healthy volunteers aged 55-75 years were admitted on Day −1 for a 5-day confinement period at the research facility. During this confinement, subjects received escalating doses of open label Compound 03-5 (1-10 mg) once-daily from Day 1 through Day 3 2 hours after pre-administration of open-label nadolol (3 mg) one each for the 3 dosing days according to the following schematic. Subjects remained in-residency until all study procedures are completed on Day 4.

healthy subjects [2] = test: Blood potassium, glucose and other peripheral effects of Compound 03-5 with or without nadolol
Text: Data are presented as individual observations for all available subjects.
as §1

[3] = tested on: healthy volunteers aged 55-75 years; test: CANTAB cognition battery, Cohort D2; conditions: Compound 03-5 1, 3 and 10 mg once daily, 2 h after 3 mg nadolol, change from within-day pre-dose
Protocol: CANTAB data from healthy adults 55-75 years of age (N=4) who received once-daily 3 mg nadolol and Compound 03-5 (1, 3, and 10 mg) on Day 1, Day 2 and Day 3. […] Data are presented as mean changes from the within-day pre-dose assessment.
In some embodiments, cognition may be evaluated using the Cambridge Neuropsychological Test Automated Battery (CANTAB) assessment (see, for example, Sahakian, et al., (1988). Brain. 111 (3): 695-718). Cognitive domains, such as attention, visuospatial working memory, episodic memory, speed of process and executive function can be assessed using the CANTAB Battery Test, which includes the following: • Reaction Time (RTI), • Paired Associates Learning (PAL), • Verbal Recognition Memory (VRM) Immediate Free Recall, • Rapid Visual Information Processing (RVP), • Spatial Working Memory (SWM), • Adaptive Tracking, and • VRM Delayed Free recall and Forced-Choice Recognition.
as §2

patients = test: Cerebral blood flow relative to baseline after a single dose in patients (Example 1)
healthy subjects [4] = test: ASL MRI cerebral perfusion before and after a single dose in healthy subjects (Example 3)
Protocol: The data are plotted as change from baseline in cerebral blood flow in different regions of the brain.
Six healthy subjects aged 44-52 were treated with a single dose of […]. The Baseline vs. post-dose paired t-tests results: p=0.019. The color scale is shown in the middle and indicates cerebral blood flow with low values in red and high values in yellow.
In a clinical study, healthy subjects were administered doses of clenbuterol ranging from 20 to 160 μg and ASL MM was conducted prior to and after dosing with an objective to ascertain whether this neuroimaging method enables the detection of a clinically relevant CNS signal.
In a region of interest (ROI) analysis focusing on the hippocampus, which is well understood to be affected in neurodegenerative disorders, a single dose of 80 μg of clenbuterol causes a robust increase in perfusion (see FIG. 7). […] Taken together with other cohorts in which ASL MM was conducted, a clear dose response relationship is seen between dose of clenbuterol and cerebral perfusion (FIG. 8). […] Our hypothesis is that by improving cerebral perfusion, particularly in areas of the brain that are relevant for symptoms that are commonly found in neurodegenerative diseases such as PD and AD, the administration of a β-AR agonist (such as a β-agent) will have a positive effect on clinically relevant symptoms such as memory and cognition.

healthy subjects [5] = test: Adaptive tracking test (visuomotor coordination and vigilance); conditions: single dose of 160 μg clenbuterol
Text: Adaptive tracking measures visuomotor coordination and vigilance. In this test, the subject uses a joystick to move a small dot so that it stays within a continuously moving circle on a computer screen (Boland 1984). During the test, the speed of the circle is adjusted in response to the subject's ability to keep the dot in the circle, ensuring that the test is adapted to the individual subject. […] The improvement shown by subjects is in the same range as that seen with subjects treated with the acetylcholinesterase inhibitor donepezil, which is in clinical use for the treatment of mild to moderate AD (Groeneveld 2016).

subjects = test: Visual verbal learning test (VVLT); conditions: crossover study, Part A
Protocol: Subjects are presented 30 words on a screen, one at a time, for 1 second with a 1-second interval between words over a total of 1 minute. This is repeated in 3 trials. After each trial, subjects are asked to recall as many words as they can. After the third trial, there is a delay of 2.5 hours and subjects are then tested once for delayed recall. […] Since this was a crossover study, everyone who completed Part A was dosed with the 3 agents plus placebo.

[6] = clenbuterol doses of 80 and 160 μg

CC(C)(C)NC[C@H](O)c1cccc(C#N)n1 [Compound 03-5, (S)-6-(2-(tert-butylamino)-1-hydroxyethyl)picolinonitrile]
mean maximum increase in heart rate (healthy subjects [1]; 6 mg Compound 03-5 after pre-administration of 1 mg nadolol): 7 beats per minute
hypokalemia (blood potassium levels) (healthy subjects [2]; Compound 03-5 monotherapy 0.3 mg-6 mg, Cohorts A1-A5): Dose-dependent increases in hypokalemia
performance in the CANTAB cognition battery [3]: improvements in performance in the CANTAB cognition battery

CC(C)(C)NCC(O)c1cc(Cl)c(N)c(Cl)c1 (stereo not shown) [clenbuterol]
cerebral blood flow (CBF) relative to baseline (patients; single dose of clenbuterol 160 μg): robust global increase in cerebral blood flow; also recorded: positive increase in cerebral blood flow
cerebral blood flow (CBF) relative to baseline (patients; single dose of clenbuterol 160 μg and nadolol 5 mg): robust global increase in cerebral blood flow
cerebral blood flow (CBF) relative to baseline (patients; single dose of clenbuterol ranging from 30 to 160 μg, tracked over 3 days): robust global increase in cerebral blood flow
increase in hippocampal perfusion, on average (healthy subjects [4]; 6 healthy subjects aged 44 to 52, single dose of 80 μg clenbuterol, hippocampus ROI): 25%
cerebral perfusion increase as measured by CBF (healthy subjects [4]; clenbuterol dose of 40 μg): minimal increase
cerebral perfusion increase as measured by CBF (healthy subjects [4]; clenbuterol doses below 30 μg): do not produce significant cerebral perfusion increases
global perfusion (ASL MRI) (healthy subjects [4]; [6]): robust, global increase in perfusion
improvement in perfusion in brain areas relevant to the neuropathology of neurodegenerative disorders (healthy subjects [4]; [6]): ~25%
cerebral perfusion (ASL MRI) (healthy subjects [4]; healthy subjects, single dose of 160 μg clenbuterol): robust global increase in cerebral perfusion
cognition as measured by adaptive tracking and word recall (healthy subjects [5]; healthy subjects, preliminary data): improves cognition
performance in adaptive tracking (percent time dot kept within moving circle) (healthy subjects [5]): improved adaptive tracking; also recorded: performance in adaptive tracking improves
effect on the VVLT (subjects): positive effects

CC(C)(C)NCC(O)COc1cccc2c1CC(O)C(O)C2 (stereo not shown) [nadolol]
effect of nadolol on peripheral effects of Compound 03-5 on heart rate, glucose, potassium, tachycardia, tremor and palpitations (healthy subjects [1]; Cohort D1, pre-administered nadolol 1 mg up to 40 mg, Compound 03-5 3-12 mg): blocked the peripheral effects
effect of nadolol on Compound 03-5 increase in heart rate and other peripheral effects including hyperglycemia and hypokalemia (healthy subjects [1]; Cohort D1, pre-administration of 1 mg nadolol, Compound 03-5 orally up to 6 mg): substantially attenuated
effect of nadolol on peripheral effects of Compound 03-5 on heart rate, etc. (healthy subjects [1]; Cohort D2, pre-administered nadolol 3 mg, Compound 03-5 1-10 mg): similarly blocked the peripheral effects
effect of nadolol on Compound 03-5 hypokalemia (healthy subjects [2]; nadolol 1-40 mg, Cohorts D1 and D2): attenuation of hypokalemia
effect of nadolol on effects of Compound 03-5 on blood glucose and potassium, tachycardia, tremor and palpitations (healthy subjects [2]; pre-administration of 1 mg nadolol, 6 mg Compound 03-5): Concomitant attenuation

CC(C)(C)NCC(O)c1ccc(O)c(CO)c1 (stereo not shown) [salbutamol]
effect on the VVLT (subjects): positive effects

CC(C)NCC(O)COc1cccc2[nH]ccc12 (stereo not shown) [pindolol]
effect on the VVLT (subjects): detrimental effect
